In article PMC5218480 (PLoS ONE, 2017):

Tested on: MV-4-11 cells
Experiment: Gene expression microarray analysis (Affymetrix PrimeView) and GSEA
Type: cell-based, human
Design: RFU PODN (11730768_x_at) / Fold change /veh PODN (11730768_x_at) / RFU LINC00158 (11744669_a_at) / Fold change /veh LINC00158 (11744669_a_at) / RFU DUSP10 (11751237_a_at) / Fold change /veh DUSP10 (11751237_a_at) / RFU ID3 (11757404_x_at) / Fold change /veh ID3 (11757404_x_at) / RFU PLEKHG5 (11737974_s_at) / Fold change /veh PLEKHG5 (11737974_s_at) / RFU LRRC4B (11730491_at) / Fold change /veh LRRC4B (11730491_at) / RFU GIMAP4 (11747438_a_at) / Fold change /veh GIMAP4 (11747438_a_at) / RFU KRT8 (11758183_x_at) / Fold change /veh KRT8 (11758183_x_at) / RFU CNN1 (11734310_a_at) / Fold change /veh CNN1 (11734310_a_at) / RFU VPS37D (11726825_at) / Fold change /veh VPS37D (11726825_at) / RFU C10orf10 (11716522_x_at) / Fold change /veh C10orf10 (11716522_x_at) / RFU KIR2DL2 /// KIR2DL4 /// KIR2DL5A /// KIR2DL5B /// KIR2DS1 /// KIR2DS2 /// KIR2DS3 /// KIR2DS4 /// KIR3DL3 /// KIR3DL3 /// KIR3DS1 (11738374_at) / Fold change /veh KIR2DL2 /// KIR2DL4 /// KIR2DL5A /// KIR2DL5B /// KIR2DS1 /// KIR2DS2 /// KIR2DS3 /// KIR2DS4 /// KIR3DL3 /// KIR3DL3 /// KIR3DS1 (11738374_at) / RFU C1QL1 (11718748_at) / Fold change /veh C1QL1 (11718748_at) / RFU TMPRSS4 (11747572_a_at) / Fold change /veh TMPRSS4 (11747572_a_at) / RFU HAMP (11756126_x_at) / Fold change /veh HAMP (11756126_x_at) / RFU RNFT2 (11725882_a_at) / Fold change /veh RNFT2 (11725882_a_at) / RFU NR4A2 (11747474_a_at) / Fold change /veh NR4A2 (11747474_a_at) / RFU ABCC12 (11746883_a_at) / Fold change /veh ABCC12 (11746883_a_at) / RFU TMEM136 (11760407_x_at) / Fold change /veh TMEM136 (11760407_x_at) / RFU CLDN22 /// WWC2 (11732394_at) / Fold change /veh CLDN22 /// WWC2 (11732394_at) / RFU HLA-DPB1 (11760878_x_at) / Fold change /veh HLA-DPB1 (11760878_x_at) / RFU SPINT1 (11716480_a_at) / Fold change /veh SPINT1 (11716480_a_at) / RFU GAP43 (11754022_s_at) / Fold change /veh GAP43 (11754022_s_at) / RFU A4GNT (11735810_at) / Fold change /veh A4GNT (11735810_at) / RFU PRB3 (11715151_x_at) / Fold change /veh PRB3 (11715151_x_at) / RFU TUBB4B (11761932_at) / Fold change /veh TUBB4B (11761932_at) / RFU CAPN14 (11732068_a_at) / Fold change /veh CAPN14 (11732068_a_at) / RFU TMCC2 (11721928_a_at) / Fold change /veh TMCC2 (11721928_a_at) / RFU IRGQ (11745062_a_at) / Fold change /veh IRGQ (11745062_a_at) / RFU FAM174B (11720279_a_at) / Fold change /veh FAM174B (11720279_a_at) / RFU TMPRSS4 (11748680_a_at) / Fold change /veh TMPRSS4 (11748680_a_at) / RFU FAM212B (11763350_a_at) / Fold change /veh FAM212B (11763350_a_at) / RFU PLEKHG5 (11743358_a_at) / Fold change /veh PLEKHG5 (11743358_a_at) / RFU ZSCAN30 (11745921_a_at) / Fold change /veh ZSCAN30 (11745921_a_at) / RFU CMKLR1 (11741424_a_at) / Fold change /veh CMKLR1 (11741424_a_at) / RFU LOC101060620 /// MAPK8IP1 (11723275_at) / Fold change /veh LOC101060620 /// MAPK8IP1 (11723275_at) / RFU SPTSSB (11747773_x_at) / Fold change /veh SPTSSB (11747773_x_at) / RFU PRSS12 (11739890_at) / Fold change /veh PRSS12 (11739890_at) / RFU BIN1 (11741810_x_at) / Fold change /veh BIN1 (11741810_x_at) / RFU WNT11 (11732464_a_at) / Fold change /veh WNT11 (11732464_a_at) / RFU C10orf10 (11716521_a_at) / Fold change /veh C10orf10 (11716521_a_at) / RFU C5orf56 (11738089_at) / Fold change /veh C5orf56 (11738089_at) / RFU CYB561 (11721691_x_at) / Fold change /veh CYB561 (11721691_x_at) / RFU ANKRD19P (11752326_a_at) / Fold change /veh ANKRD19P (11752326_a_at) / RFU OR2T12 /// OR2T33 /// OR2T8 (11738714_s_at) / Fold change /veh OR2T12 /// OR2T33 /// OR2T8 (11738714_s_at) / RFU VCAN (11748164_a_at) / Fold change /veh VCAN (11748164_a_at) / RFU JSRP1 (11732532_at) / Fold change /veh JSRP1 (11732532_at) / RFU KRTAP10-11 (11738290_x_at) / Fold change /veh KRTAP10-11 (11738290_x_at) / RFU MYO3A (11730013_a_at) / Fold change /veh MYO3A (11730013_a_at) / RFU EBF3 (11725865_a_at) / Fold change /veh EBF3 (11725865_a_at) / RFU CAMK2N1 (11719241_x_at) / Fold change /veh CAMK2N1 (11719241_x_at) / RFU C5orf56 (11738088_a_at) / Fold change /veh C5orf56 (11738088_a_at) / RFU OLFML3 (11715873_a_at) / Fold change /veh OLFML3 (11715873_a_at) / RFU LOC100653217 /// NTM (11731650_a_at) / Fold change /veh LOC100653217 /// NTM (11731650_a_at) / RFU MAPK11 (11762145_a_at) / Fold change /veh MAPK11 (11762145_a_at) / RFU FIZ1 (11724087_x_at) / Fold change /veh FIZ1 (11724087_x_at) / RFU OASL (11726364_x_at) / Fold change /veh OASL (11726364_x_at) / RFU SOX15 (11748057_x_at) / Fold change /veh SOX15 (11748057_x_at) / RFU CD79A (11719716_a_at) / Fold change /veh CD79A (11719716_a_at) / RFU HIST1H1D (11736915_at) / Fold change /veh HIST1H1D (11736915_at) / RFU CASKIN2 (11723855_a_at) / Fold change /veh CASKIN2 (11723855_a_at) / RFU LOC730098 (11760151_x_at) / Fold change /veh LOC730098 (11760151_x_at) / RFU OR4N2 (11742367_at) / Fold change /veh OR4N2 (11742367_at) / RFU PRRT2 (11749266_a_at) / Fold change /veh PRRT2 (11749266_a_at) / RFU SNX32 (11753110_a_at) / Fold change /veh SNX32 (11753110_a_at) / RFU CDHR5 (11726645_a_at) / Fold change /veh CDHR5 (11726645_a_at) / RFU RCAN1 (11760418_a_at) / Fold change /veh RCAN1 (11760418_a_at) / RFU FAM167A (11723789_a_at) / Fold change /veh FAM167A (11723789_a_at) / RFU FAM26E (11764081_at) / Fold change /veh FAM26E (11764081_at) / RFU ISYNA1 (11749810_s_at) / Fold change /veh ISYNA1 (11749810_s_at) / RFU ACY1 (11761880_at) / Fold change /veh ACY1 (11761880_at) / RFU 11764098_at / Fold change /veh 11764098_at / RFU SAMD14 (11745864_x_at) / Fold change /veh SAMD14 (11745864_x_at) / RFU NPB (11741838_a_at) / Fold change /veh NPB (11741838_a_at) / RFU TMPRSS6 (11731388_a_at) / Fold change /veh TMPRSS6 (11731388_a_at) / RFU KRTAP10-2 (11738614_at) / Fold change /veh KRTAP10-2 (11738614_at) / RFU ARHGAP8 /// PRR5-ARHGAP8 (11727945_x_at) / Fold change /veh ARHGAP8 /// PRR5-ARHGAP8 (11727945_x_at) / RFU KRTAP5-7 /// NADSYN1 (11734609_at) / Fold change /veh KRTAP5-7 /// NADSYN1 (11734609_at) / RFU RASL12 (11751679_a_at) / Fold change /veh RASL12 (11751679_a_at) / RFU CDKN2B (11736163_a_at) / Fold change /veh CDKN2B (11736163_a_at) / RFU PRF1 (11729649_at) / Fold change /veh PRF1 (11729649_at) / RFU, ZNF638 /// ZNF638-IT1 / Fold change vs veh, ZNF638 /// ZNF638-IT1 / RFU, PANK3 / Fold change vs veh, PANK3 / RFU, SH3YL1 / Fold change vs veh, SH3YL1 / RFU, ZEB2 / Fold change vs veh, ZEB2 / RFU, NRIP1 / Fold change vs veh, NRIP1 / RFU, PTTG1IP / Fold change vs veh, PTTG1IP / RFU, CAPN2 / Fold change vs veh, CAPN2 / RFU, MED14 / Fold change vs veh, MED14 / RFU, SNORA58 / Fold change vs veh, SNORA58 / RFU, C1orf63 / Fold change vs veh, C1orf63 / RFU, LRRFIP1 / Fold change vs veh, LRRFIP1 / RFU, NDUFAF7 / Fold change vs veh, NDUFAF7 / RFU, SLC12A2 / Fold change vs veh, SLC12A2 / RFU, IBTK / Fold change vs veh, IBTK / RFU, ESF1 / Fold change vs veh, ESF1 / Fold change vs veh, TMEM50B / RFU, TAOK1 / Fold change vs veh, TAOK1 / RFU, ACBD3 / Fold change vs veh, ACBD3 / RFU, TMA16 / Fold change vs veh, TMA16 / RFU, RWDD3 / Fold change vs veh, RWDD3 / RFU, BCAT1 / Fold change vs veh, BCAT1 / RFU, EDEM3 / Fold change vs veh, EDEM3 / RFU, TMEM33 / Fold change vs veh, TMEM33 / RFU, WDR75 / Fold change vs veh, WDR75 / RFU, AHCTF1 / Fold change vs veh, AHCTF1 / RFU, TFRC / Fold change vs veh, TFRC / RFU, ZDHHC17 / Fold change vs veh, ZDHHC17 / RFU, NOM1 / Fold change vs veh, NOM1 / RFU, ARL8B / Fold change vs veh, ARL8B / RFU, ZBTB11 / Fold change vs veh, ZBTB11 / RFU, TAMM41 / Fold change vs veh, TAMM41 / RFU, KIAA1704 /// LOC100996395 / Fold change vs veh, KIAA1704 /// LOC100996395 / RFU, ING1 / Fold change vs veh, ING1 / RFU, TRMT61B / Fold change vs veh, TRMT61B / RFU, FUBP3 / Fold change vs veh, FUBP3 / RFU, TP53 / Fold change vs veh, TP53 / RFU, TNKS2 / Fold change vs veh, TNKS2 / RFU, ZFP14 / Fold change vs veh, ZFP14 / RFU, ACTR2 / Fold change vs veh, ACTR2 / RFU, PPP3R1 / Fold change vs veh, PPP3R1 / RFU, PIK3R1 / Fold change vs veh, PIK3R1 / RFU, HNRNPA1 / Fold change vs veh, HNRNPA1 / RFU, RNF170 / Fold change vs veh, RNF170 / RFU, ZNF28 / Fold change vs veh, ZNF28 / RFU, RNGTT / Fold change vs veh, RNGTT / RFU, OGT / Fold change vs veh, OGT / RFU, BRD1 / Fold change vs veh, BRD1 / RFU, MARS / Fold change vs veh, MARS / RFU, ZNF655 / Fold change vs veh, ZNF655 / RFU, FAHD1 / Fold change vs veh, FAHD1 / RFU, BDP1 / Fold change vs veh, BDP1 / RFU, LRRCC1 / Fold change vs veh, LRRCC1 / RFU, ARID1A / Fold change vs veh, ARID1A / RFU, ZNF146 / Fold change vs veh, ZNF146 / RFU, ZNF330 / Fold change vs veh, ZNF330 / RFU, GPN3 / Fold change vs veh, GPN3 / RFU, C9orf123 / Fold change vs veh, C9orf123 / RFU, N4BP2L2 / Fold change vs veh, N4BP2L2 / RFU, ARFIP1 / Fold change vs veh, ARFIP1 / RFU, FAM179B / Fold change vs veh, FAM179B / RFU, BCL10 / Fold change vs veh, BCL10 / RFU, UHRF1BP1L / Fold change vs veh, UHRF1BP1L / RFU, BET1 / Fold change vs veh, BET1 / RFU, CNOT2 / Fold change vs veh, CNOT2 / RFU, ZNF268 / Fold change vs veh, ZNF268 / Fold change vs veh, ZNF507 / RFU, DGCR2 / Fold change vs veh, DGCR2 / RFU, WDSUB1 / Fold change vs veh, WDSUB1 / Fold change vs veh, HSP90B1 /// MIR3652 / RFU, ADSS / Fold change vs veh, ADSS / RFU, GK / Fold change vs veh, GK / RFU, ZNF148 / Fold change vs veh, ZNF148 / RFU, TAF9 / Fold change vs veh, TAF9 / RFU, SLC1A5 / Fold change vs veh, SLC1A5 / RFU, SLMO2 / Fold change vs veh, SLMO2 / RFU, ABCC4 / Fold change vs veh, ABCC4 / RFU, LOC101060439 /// RAP1B / Fold change vs veh, LOC101060439 /// RAP1B / RFU, RFX7 / Fold change vs veh, RFX7 / RFU, GTPBP10 / Fold change vs veh, GTPBP10 / RFU, CNEP1R1 / Fold change vs veh, CNEP1R1 / RFU, BIVM-ERCC5 /// ERCC5 / Fold change vs veh, BIVM-ERCC5 /// ERCC5 / RFU, ILF3 / Fold change vs veh, ILF3 / RFU 11762660_at / Fold change /veh 11762660_at / RFU VCAN (11757783_s_at) / Fold change /veh VCAN (11757783_s_at) / RFU DDX43 (11728927_at) / Fold change /veh DDX43 (11728927_at) / RFU KRT8 (11758188_x_at) / Fold change /veh KRT8 (11758188_x_at) / RFU NKD1 (11759106_at) / Fold change /veh NKD1 (11759106_at) / RFU SRD5A1 (11742802_a_at) / Fold change /veh SRD5A1 (11742802_a_at) / RFU TPSAB1 /// TPSB2 (11721975_s_at) / Fold change /veh TPSAB1 /// TPSB2 (11721975_s_at) / RFU GSTM3 (11746129_a_at) / Fold change /veh GSTM3 (11746129_a_at) / RFU IL23R (11737362_x_at) / Fold change /veh IL23R (11737362_x_at) / RFU TMEM51 (11727254_a_at) / Fold change /veh TMEM51 (11727254_a_at) / RFU PIWIL2 (11732686_x_at) / Fold change /veh PIWIL2 (11732686_x_at) / RFU ORM1 (11744905_x_at) / Fold change /veh ORM1 (11744905_x_at) / RFU CCDC152 (11743942_at) / Fold change /veh CCDC152 (11743942_at) / RFU ECM1 (11717891_a_at) / Fold change /veh ECM1 (11717891_a_at) / RFU IL23R (11748794_a_at) / Fold change /veh IL23R (11748794_a_at) / RFU TNFAIP8L3 (11732012_x_at) / Fold change /veh TNFAIP8L3 (11732012_x_at) / RFU MBOAT4 (11741988_at) / Fold change /veh MBOAT4 (11741988_at) / RFU 11764193_at / Fold change /veh 11764193_at / RFU TMEM53 (11763286_at) / Fold change /veh TMEM53 (11763286_at) / RFU MAGEB2 (11727129_at) / Fold change /veh MAGEB2 (11727129_at) / RFU TMEM200A (11744735_a_at) / Fold change /veh TMEM200A (11744735_a_at) / RFU CCDC152 (11751479_a_at) / Fold change /veh CCDC152 (11751479_a_at) / RFU FAM211A (11726209_a_at) / Fold change /veh FAM211A (11726209_a_at) / RFU RGS16 (11746705_a_at) / Fold change /veh RGS16 (11746705_a_at) / RFU VCAN (11755009_s_at) / Fold change /veh VCAN (11755009_s_at) / RFU RHOB (11743442_s_at) / Fold change /veh RHOB (11743442_s_at) / RFU RGS16 (11720943_a_at) / Fold change /veh RGS16 (11720943_a_at) / RFU RGS16 (11720944_at) / Fold change /veh RGS16 (11720944_at) / RFU, VPS4B / Fold change vs veh, VPS4B / RFU, CREB1 / Fold change vs veh, CREB1 / RFU, DNAJC13 / Fold change vs veh, DNAJC13 / RFU, GNAQ / Fold change vs veh, GNAQ / RFU, CDK5R1 / Fold change vs veh, CDK5R1 / RFU, ZRANB3 / Fold change vs veh, ZRANB3 / RFU, CUL4A / Fold change vs veh, CUL4A / RFU, CCNY / Fold change vs veh, CCNY / RFU, UFL1 / Fold change vs veh, UFL1 / RFU, COG3 / Fold change vs veh, COG3 / RFU, DIAPH2 / Fold change vs veh, DIAPH2 / RFU, SKA2 / Fold change vs veh, SKA2 / RFU, AFF3 / Fold change vs veh, AFF3 / RFU, LMF1 / Fold change vs veh, LMF1 / RFU, IPO11 / Fold change vs veh, IPO11 / RFU, DFFB / Fold change vs veh, DFFB / RFU, FOXP1 / Fold change vs veh, FOXP1 / RFU, CARD8 / Fold change vs veh, CARD8 / RFU, STRN3 / Fold change vs veh, STRN3 / RFU, ADK / Fold change vs veh, ADK / RFU, RASSF2 / Fold change vs veh, RASSF2 / RFU, WIPF1 / Fold change vs veh, WIPF1 / RFU, LARP1B / Fold change vs veh, LARP1B / RFU, RASA1 / Fold change vs veh, RASA1 / RFU, RB1 / Fold change vs veh, RB1 / RFU, PPFIA1 / Fold change vs veh, PPFIA1 / RFU, MAT2A / Fold change vs veh, MAT2A / RFU, CCT5 / Fold change vs veh, CCT5 / RFU, WDR92 / Fold change vs veh, WDR92 / RFU, CUX1 / Fold change vs veh, CUX1 / RFU, TTC7A / Fold change vs veh, TTC7A / RFU, TMEM135 / Fold change vs veh, TMEM135 / RFU, DEPTOR / Fold change vs veh, DEPTOR / RFU, CPM / Fold change vs veh, CPM / RFU, DNAJB6 / Fold change vs veh, DNAJB6 / RFU, CACNA2D3 / Fold change vs veh, CACNA2D3 / RFU, DTX4 / Fold change vs veh, DTX4 / RFU, TFCP2 / Fold change vs veh, TFCP2 / RFU, GMCL1 /// GMCL1P1 / Fold change vs veh, GMCL1 /// GMCL1P1 / RFU, AEBP2 / Fold change vs veh, AEBP2 / RFU, SNHG1 /// SNORD22 /// SNORD25 /// SNORD26 /// SNORD27 /// SNORD28 /// SNORD29 /// SNORD31 / Fold change vs veh, SNHG1 /// SNORD22 /// SNORD25 /// SNORD26 /// SNORD27 /// SNORD28 /// SNORD29 /// SNORD31 / Fold change (Aza/veh), C12orf56 (ProbeSet 11735607_a_at) / Fold change (ACY-1035/veh), C12orf56 (ProbeSet 11735607_a_at) / Fold change (Aza/veh), FGFR1OP (ProbeSet 11751329_s_at) / Fold change (ACY-1035/veh), FGFR1OP (ProbeSet 11751329_s_at) / Fold change (Aza/veh), VPS36 (ProbeSet 11739960_a_at) / Fold change (ACY-1035/veh), VPS36 (ProbeSet 11739960_a_at) / RFU SYPL1 (11715823_x_at) / Fold change /veh SYPL1 (11715823_x_at) / RFU IGFBP7 (11715501_s_at) / Fold change /veh IGFBP7 (11715501_s_at) / RFU REEP3 (11722064_at) / Fold change /veh REEP3 (11722064_at) / RFU IGLL1 (11728026_x_at) / Fold change /veh IGLL1 (11728026_x_at): dose or concentration left out as unconfirmed
Settings: MV-4-11 cells, 48 hours

Nc1ccc(-c2cccs2)cc1NC(=O)c1ccc2c(c1)cc(C1CC1)n2CCN1CCOCC1 [ACY-1035]
RFU PLEKHG5 (11737974_s_at): 47.67 RFU
